Experimental data: PubChem BioAssay AID2060347 (Molecular Pharmacology Branch, DTP, NCI, 2025)
Values joined by “and” are separate entries in the source; they are usually repeats but may differ in a detail not shown here. Equal entries are not always repeated.

Test system: 817829-284-R-J1-PDC spheroids with HUVEC/MSC, viability
Assay: Anticancer human tumor 817829-284-R-J1-PDC patient-derived colon adenocarcinoma cell line growth inhibition [TAK]
Conditions: for viability, T/C: stronger effect = lower value; active = viability on the fitted dose curve at most 10% of control; inactive = the rest
Description: Combinatorial screen of targeted agents with TAK-243 and ipatasertib in multi-cell type tumor spheroids
A high-throughput screen of multi-cell type tumor spheroids was designed to identify active combinations of targeted small molecules and TAK-243 or ipatasertib. Complex spheroids include a stromal component modeled by human endothelial cells (HUVEC) and fibroblasts modeled by human mesenchymal stem cells (MSCs). The concentration ranges selected for each drug and investigational agent were based upon clinically achievable concentrations if the clinical Cmax of the agent was known.
Compounds. The drugs and investigational agents: TAK-243 (785004), ipatasertib (767898), everolimus (733504), selumetinib (741078), bortezomib (756655), trametinib (758246), ixazomib (758254), vemurafenib (761431), dabrafenib (764134), sapanisertib (764658), alpelisib (765974), and copanlisib (816437), were obtained from the National Cancer Institute (NCI) Developmental Therapeutics Program Chemical Repository. The FDA-approved anticancer drug set is available from the NCI Developmental Therapeutics Program. […] The stock solutions were prepared in dimethyl sulfoxide (DMSO, Sigma-Aldrich, St. Louis, MO, cat. D2650) at 800-fold the tested concentration and stored at -70 degrees C prior to their use. All drugs and investigational agents were tested over a range starting from a high concentration at or near the clinical Cmax and decreasing in half-log increments. If the clinical Cmax for an agent had not been determined, the highest concentration tested was 10 microM.
NCI60 Cell Culture. NCI60 cell lines were obtained from the NCI Developmental Therapeutics Program Tumor Repository. For each lot of cells, the Repository performed Applied Biosystems AmpFLSTR Identifiler testing with PCR amplification to confirm consistency with the published Identifier STR profile for each cell line. Cells were kept in continuous culture for no more than 20 passages. The optimal seeding densities for each of the cell lines at each time point assessed were determined prior to performing the concentration response studies. Briefly, the NCI60 human tumor lines were grown as monolayers in RPMI 1640 medium supplemented with 10% FBS and 2 mmol/L L-glutamine.
An additional 2 lines were from the NCI60 cell line panel including melanomas, MALME-3M and SK-MEL-2. Pooled donor human umbilical vein endothelial cells (HUVEC, Lonza, cat. CC-2519) and human mesenchymal stem cells (hMSC, Lonza, cat. PT-2501) were purchased from Lonza (Walkersville, MD).
PDMR cell lines were grown in complete medium (DC medium): Dulbecco's modified Eagle's medium (DMEM)/F12 supplemented with 5% fetal bovine serum (FBS), 2 mM L-glutamine, 100 U/mL penicillin and 100 µg/ml streptomycin, 0.4 µg/ml hydrocortisone, 10 ng/ml epidermal growth factor (EGF) recombinant human protein, 24 µg/mL adenine, and 0.1 mg/mL primocin. During culture from frozen stock vials, PDMR cells were cultured in the same medium containing 10 µM Y-27632 (see Table 3). The PDCs were cultured in complete DMEM/F12 media without 10 microM Y-27632 dihydrochloride for at least two passages prior to the screen. The pooled donor HUVEC and hMSC were cultured in endothelial cell growth medium 2 (PromoCell, Heidelberg, Germany, cat. C-22011) and mesenchymal stem cell growth medium 2 (PromoCell, cat. C-28009), respectively. For all experiments, HUVEC and hMSC were used at passages </=5.
For the pre-screen, cell seeding densities were determined from a titration spanning the range from 5,000 to 313 cells per well. The mct-spheroids including 60% malignant cells, 25% HUVEC and 15% MSC dispensed as a mixture into U-bottom Ultra-Low Attachment 384-well plates (Corning, NY)
High-throughput Drug Combination Screening.
Prior to their inoculation into 384-well plates, malignant cells, HUVEC, and hMSC were removed from T flasks using TrypLE express (Thermo Fisher Scientific, cat. 12605036) and harvested by centrifugation for 5 min at 233 x g. […]

[1] = curve of first compound, second compound 0.3 µM
[2] = curve of first compound, second compound 0.949 µM
[3] = curve of first compound, second compound 3 µM
[4] = curve of first compound, second compound 9.49 µM
[5] = curve of first compound, second compound 30 µM

CC(=O)Nc1cccc(-n2c(=O)n(C3CC3)c(=O)c3c(Nc4ccc(I)cc4F)n(C)c(=O)c(C)c32)c1 + CC(C)NCC(C(=O)N1CCN(c2ncnc3c2C(C)CC3O)CC1)c1ccc(Cl)cc1
active: viability, T/C (second compound 0.3 µM, first compound 0.03 µM) 7.59% | viability, T/C (second compound 3 µM, first compound 94.9 pM) 9.84% | viability, T/C (second compound 3 µM, first compound 0.0003 µM) 8.37% | viability, T/C (second compound 3 µM, first compound 0.000949 µM) 8.93% | viability, T/C (second compound 3 µM, first compound 0.003 µM) 8.79% | viability, T/C (second compound 3 µM, first compound 0.00949 µM) 7.98% | viability, T/C (second compound 3 µM, first compound 0.03 µM) 7.61% | viability, T/C (second compound 9.49 µM, first compound 94.9 pM) 6.42% | viability, T/C (second compound 9.49 µM, first compound 0.0003 µM) 5.85% | viability, T/C (second compound 9.49 µM, first compound 0.000949 µM) 5.02% | viability, T/C (second compound 9.49 µM, first compound 0.003 µM) 5.15% | viability, T/C (second compound 9.49 µM, first compound 0.00949 µM) 5.13% | viability, T/C (second compound 9.49 µM, first compound 0.03 µM) 4.15% | viability, T/C (second compound 30 µM, first compound 94.9 pM) 4.66% | viability, T/C (second compound 30 µM, first compound 0.0003 µM) 4.56% | viability, T/C (second compound 30 µM, first compound 0.000949 µM) 3.15% | viability, T/C (second compound 30 µM, first compound 0.003 µM) 3.45% | viability, T/C (second compound 30 µM, first compound 0.00949 µM) 2.76% | viability, T/C (second compound 30 µM, first compound 0.03 µM) 2.65%
< 0.0949 nM: IC50 [2] | IC50 [3] | IC50 [4] | IC50 [5]
inactive: viability, T/C (second compound 0.3 µM, first compound 94.9 pM) 60% | viability, T/C (second compound 0.3 µM, first compound 0.0003 µM) 36.2% | viability, T/C (second compound 0.3 µM, first compound 0.000949 µM) 22.1% | viability, T/C (second compound 0.3 µM, first compound 0.003 µM) 24.3% | viability, T/C (second compound 0.3 µM, first compound 0.00949 µM) 11.9% | viability, T/C (second compound 0.949 µM, first compound 94.9 pM) 19.3% | viability, T/C (second compound 0.949 µM, first compound 0.0003 µM) 19.1% | viability, T/C (second compound 0.949 µM, first compound 0.000949 µM) 13.8% | viability, T/C (second compound 0.949 µM, first compound 0.003 µM) 12.8% | viability, T/C (second compound 0.949 µM, first compound 0.00949 µM) 11.4% | viability, T/C (second compound 0.949 µM, first compound 0.03 µM) 10.6%
0.154 nM: IC50 [1]

CC(=O)Nc1cccc(-n2c(=O)n(C3CC3)c(=O)c3c(Nc4ccc(I)cc4F)n(C)c(=O)c(C)c32)c1
4.58 nM and 4.15 nM: IC50 (curve of compound)
10.8% and 11%: viability, T/C (compound 0.03 µM)
inactive: viability, T/C (compound 94.9 pM) 104% and 103% | viability, T/C (compound 0.0003 µM) 93% and 94.2% | viability, T/C (compound 0.000949 µM) 85.1% and 82.9% | viability, T/C (compound 0.003 µM) 65.9% and 53.9% | viability, T/C (compound 0.00949 µM) 25.9% and 33.9%

CCCS(=O)(=O)Nc1ccc(F)c(C(=O)c2c[nH]c3ncc(-c4ccc(Cl)cc4)cc23)c1F + CC(C)NCC(C(=O)N1CCN(c2ncnc3c2C(C)CC3O)CC1)c1ccc(Cl)cc1
active: viability, T/C (second compound 3 µM, first compound 3.16 µM) 11.6% | viability, T/C (second compound 3 µM, first compound 10 µM) 4.96% | viability, T/C (second compound 3 µM, first compound 31.6 µM) 1.71% | viability, T/C (second compound 3 µM, first compound 100 µM) 12.3% | viability, T/C (second compound 9.49 µM, first compound 0.316 µM) 9.5% | viability, T/C (second compound 9.49 µM, first compound 1 µM) 7.83% | viability, T/C (second compound 9.49 µM, first compound 3.16 µM) 7.41% | viability, T/C (second compound 9.49 µM, first compound 10 µM) 2.4% | viability, T/C (second compound 9.49 µM, first compound 31.6 µM) 0.86% | viability, T/C (second compound 9.49 µM, first compound 100 µM) 7.59% | viability, T/C (second compound 30 µM, first compound 0.316 µM) 5.18% | viability, T/C (second compound 30 µM, first compound 1 µM) 5.41% | viability, T/C (second compound 30 µM, first compound 3.16 µM) 2.16% | viability, T/C (second compound 30 µM, first compound 10 µM) 0.51% | viability, T/C (second compound 30 µM, first compound 31.6 µM) 0.2% | viability, T/C (second compound 30 µM, first compound 100 µM) 1.89%
inactive: viability, T/C (second compound 0.3 µM, first compound 0.316 µM) 78.3% | viability, T/C (second compound 0.3 µM, first compound 1 µM) 66.9% | viability, T/C (second compound 0.3 µM, first compound 3.16 µM) 38% | viability, T/C (second compound 0.3 µM, first compound 10 µM) 12.7% | viability, T/C (second compound 0.3 µM, first compound 31.6 µM) 20% | viability, T/C (second compound 0.3 µM, first compound 100 µM) 46.3% | viability, T/C (second compound 0.949 µM, first compound 0.316 µM) 29.6% | viability, T/C (second compound 0.949 µM, first compound 1 µM) 26.4% | viability, T/C (second compound 0.949 µM, first compound 3.16 µM) 20.5% | viability, T/C (second compound 0.949 µM, first compound 10 µM) 10.8% | viability, T/C (second compound 0.949 µM, first compound 31.6 µM) 5.67% | viability, T/C (second compound 0.949 µM, first compound 100 µM) 17.3% | viability, T/C (second compound 3 µM, first compound 0.316 µM) 18.5% | viability, T/C (second compound 3 µM, first compound 1 µM) 14.3%
1900 nM: IC50 [1]
< 316 nM: IC50 [2] | IC50 [3] | IC50 [4] | IC50 [5]

CC(C)CC(NC(=O)C(Cc1ccccc1)NC(=O)c1cnccn1)B(O)O (stereo not drawn)
inactive: viability, T/C (compound 31.6 pM) 102% and 95.1% | viability, T/C (compound 0.0001 µM) 99.1% and 89.3% | viability, T/C (compound 0.000316 µM) 98.6% and 94.7% | viability, T/C (compound 0.001 µM) 89.5% and 98.6% | viability, T/C (compound 0.00316 µM) 103% and 99.9%
5.61 nM and > 10 nM: IC50 (curve of compound)
